Experimental data from patent US20210052532A1, “COMPOSITIONS AND METHODS FOR TREATMENT OF INSULIN RESISTANCE” (TEMPLE UNIVERSITY - OF THE COMMONWEALTH SYSTEM OF HIGHER …, priority 2018, published 2021).

Assays:
adipocyte glucose uptake = test: Overnutrition-induced adipocyte glucose uptake impairment; type: cell-based; conditions: adipocytes
Text: (§1) Without wishing to be bound by any theory, compounds of Formula I-III form adducts with reactive aldehydes such as 4-HNE, thereby diverting 4-HNE from damaging proteins such as GLUT-4, by carbonylation. […] Restoration of GLUT-4 function results in enhancement or restoration of adipocyte insulin sensitivity and the resumption or enhancement of glucose uptake.

[1] = Adduct formation with the reactive aldehyde 4-HNE; conditions: diverts 4-HNE from damaging GLUT-4 by carbonylation
Text: as §1

3T3-L1 adipocytes [2] = test: Insulin-stimulated glucose uptake in 3T3-L1 adipocytes, measured by MRM; type: cell-based; conditions: 3T3-L1 adipocytes treated 4 hr with 20 M (so in the source) of 4-HNE or H2O2 or both, then 100 nM insulin 60 min; FIG. 4 legend: 4-HNE 20 μM, H2O2 100 μM
Method: FIG. 4 graphically depicts glucose transport impairment in 3T3-L1 cells when exposed to 4-HNE (20 μM) and/or H2O2 (100 μM) for 4 hr.
(§2) GLUT4 carbonylations impair its function. To directly link the function impairment due to GLUT4 carbonylations to insulin resistance in vitro, GLUT4-SNAP fusion construct were generated and retroviral transduction in 3T3-L1 adipocytes were performed to overexpress the GLUT4-SNAP protein. Twenty-four hours after the transduction, the cells were treated with and without 20 μM of 4-HNE for an additional 4h. This 4-HNE dose was chosen because it was similar to the physiological levels and was non-toxic. […] 3T3-L1 adipocytes were treated with either 20 M of 4-HNE or H2O2 or the combination of both for 4 hr and were then stimulated with 100 nM insulin for 60 min. The glucose uptake was measured by an MRM method.

3T3-L1 adipocytes [3] = test: Toxicity of the 4-HNE dose to the treated cells; type: cell-based; conditions: 20 μM of 4-HNE, 4h, transduced 3T3-L1 adipocytes
Method: as §2

GLUT4-SNAP protein = test: Formation of K264-HNE GLUT4 adduct in 3T3-L1 cells overexpressing GLUT4-SNAP (MRM); type: cell-based; conditions: 4-HNE 20 μM for 4 hr, FIG. 3
Text: FIG. 3 provides typical MRM data showing an increase in the transitions of HNE-induced K264-HNE adduct (left panel) which were used to calculate the amounts of carbonylated GLUT4 (right panel). Four transitions of the GLUT4 peptide found in humans are shown. The sequence of the carbonylated GLUT4 peptide LTGWADVSGVLAELKDEK-4HNE (SEQ ID NO:1) is depicted.
Certain conditions such as overnutrition can lead to oxidative stress, and the generation of reactive aldehydes such as 4-HNE, which react with cysteine, lysine and histidine residues of proteins via Michael addition and Schiff base formation. 4-HNE can form HNE-Michaels adducts on GLUT4, the major insulin-facilitated glucose transporter in adipose tissue. 3T3-L1 adipocytes retrovirally transduced to overexpress the GLUT4-SNAP protein formed a K264-HNE GLUT4 adduct upon treatment with 4-HNE. The same K264-HNE GLUT4 adduct is elevated in the fat tissue of human pre-diabetic and diabetic individuals.
GLUT4 carbonylations impair its function. To directly link the function impairment due to GLUT4 carbonylations to insulin resistance in vitro, GLUT4-SNAP fusion construct were generated and retroviral transduction in 3T3-L1 adipocytes were performed to overexpress the GLUT4-SNAP protein. […] The glucose uptake was measured by an MRM method.

| SMILES | effect on glucose uptake impairment (adipocyte glucose uptake) | adduct formation with 4-HNE [1] | glucose uptake reduced / decrease in the glucose uptake (3T3-L1 adipocytes [2]) [%] | toxicity of dose (3T3-L1 adipocytes [3]) | formation of the K264-HNE adduct (GLUT4-SNAP protein) |
| --- | --- | --- | --- | --- | --- |
| Cl.Cl.NCCCNCCCC[C@H](N)C(=O)O [Example 4, (S)-2-amino-6-((3-aminopropyl)amino)hexanoic acid dihydrochloride] | reversing overnutrition-induced glucose uptake impairment | forms an adduct with 4-HNE |  |  |  |
| OO [Example H2O2] |  |  | 66 |  |  |
| CCCCCC(O)/C=C/C=O (stereo not drawn) [Example 4-HNE, 4-hydroxynonenal] |  |  | 32 | non-toxic | induced the formation of the K264-HNE adduct |
